The source of these data is patent US20050192314A1, “Urea derivatives as C-kit modulators” (Ambit Biosciences Corporation, priority 2003, published 2005).

A value given as a limit tells only on which side of the number the result lay.

Experiment [1] deals with T1, KIT(JMminus,D816V) (Homo sapiens, UniProt P10721, D816V).
T1 construct: KIT(JMminus,D816V); made in house
Briefly: Binding constant (Kd) measurement, phage-displayed kinase competition binding assay: KIT(JMminus,D816V). From the text: (§1) The term “ND” represents non-determined values.

Experiment [2] has as its target T2, KIT(JMminus) (Homo sapiens, UniProt P10721).
T2 construct: KIT(JMminus); made in house
Briefly: Binding constant (Kd) measurement, phage-displayed kinase competition binding assay: KIT(JMminus).
Text: as §1

Experiment [3] deals with T3, KIT(DKIN) (Homo sapiens, UniProt P10721).
T3 construct: KIT(DKIN); made in house
T3 sequence (P10721 589-937 limits assumed): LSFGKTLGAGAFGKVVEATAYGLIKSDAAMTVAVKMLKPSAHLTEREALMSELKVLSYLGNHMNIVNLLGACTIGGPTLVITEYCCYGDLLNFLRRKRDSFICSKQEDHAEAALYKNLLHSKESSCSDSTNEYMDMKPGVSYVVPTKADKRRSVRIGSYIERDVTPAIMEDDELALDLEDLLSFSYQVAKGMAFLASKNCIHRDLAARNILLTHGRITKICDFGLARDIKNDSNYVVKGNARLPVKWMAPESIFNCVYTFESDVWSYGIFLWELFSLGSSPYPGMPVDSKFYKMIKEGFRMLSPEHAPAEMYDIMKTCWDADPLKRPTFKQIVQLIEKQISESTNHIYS
The experiment in a line: Binding constant (Kd) measurement, phage-displayed kinase competition binding assay: KIT(DKIN).
Text: as §1

The target in experiment [4] is T4, MKNK2(DKIN) (Homo sapiens, UniProt Q9HBH9).
T4 construct: MKNK2(DKIN); made in house
T4 sequence (Q9HBH9 84-388 limits assumed): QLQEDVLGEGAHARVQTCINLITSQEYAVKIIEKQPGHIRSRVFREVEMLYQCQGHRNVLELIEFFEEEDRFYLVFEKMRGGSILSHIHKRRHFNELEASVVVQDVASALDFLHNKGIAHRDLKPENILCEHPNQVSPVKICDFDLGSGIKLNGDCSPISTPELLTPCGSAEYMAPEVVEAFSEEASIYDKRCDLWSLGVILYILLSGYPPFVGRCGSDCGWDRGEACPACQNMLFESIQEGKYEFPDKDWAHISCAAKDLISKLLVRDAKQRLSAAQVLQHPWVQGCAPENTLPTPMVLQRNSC
The experiment in a line: Binding constant (Kd) measurement, phage-displayed kinase competition binding assay: MKNK2(DKIN).
Text: as §1

Experiment [5] concerns the target KIT(JMplus) (Homo sapiens, UniProt P10721). Briefly: Binding constant (Kd) measurement, phage-displayed kinase competition binding assay: KIT(JMplus).
Text: The components of the assays include human kinases expressed as fusions to T7 bacteriophage particles and immobilized ligands that bind to the ATP site of the kinases. […] If the test compound binds the kinase it competes with the immobilized ligand and prevents binding to the solid support. […] The results are read out by quantitating the amount of fusion protein bound to the solid support, which is accomplished by either traditional phage plaque assays or by quantitative PCR (qPCR) using the phage genome as a template.
Experiment [6] deals with T5, KIT(JMplus,V559D) (Homo sapiens, UniProt P10721, V559D).
T5 construct: KIT(JMplus); made in house
T5 sequence (P10721 546-976 V559D limits assumed): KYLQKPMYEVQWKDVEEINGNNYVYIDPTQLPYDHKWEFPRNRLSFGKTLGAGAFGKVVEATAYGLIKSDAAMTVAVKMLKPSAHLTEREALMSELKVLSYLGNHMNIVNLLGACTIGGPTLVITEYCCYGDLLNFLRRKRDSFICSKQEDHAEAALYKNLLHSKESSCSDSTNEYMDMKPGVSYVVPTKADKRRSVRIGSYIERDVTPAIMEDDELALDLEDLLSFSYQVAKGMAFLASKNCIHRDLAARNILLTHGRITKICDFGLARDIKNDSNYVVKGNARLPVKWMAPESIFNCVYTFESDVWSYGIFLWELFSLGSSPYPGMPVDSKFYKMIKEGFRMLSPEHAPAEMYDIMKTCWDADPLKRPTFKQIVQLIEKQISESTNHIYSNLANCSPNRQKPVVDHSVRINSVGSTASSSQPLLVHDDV
Briefly: Binding constant (Kd) measurement, phage-displayed kinase competition binding assay: KIT(JMplus,V559D).
Text: as §1

Experiment [7] concerns CS0001. Briefly: Cell Assay: CS0001:IC50. In kind it is cell-based.

T1 sequence (P10721 589-937 D816V limits assumed): as the sequence (P10721 589-937 limits assumed) above, with D228V counted along it
T2 sequence (P10721 589-937 limits assumed): as the sequence (P10721 589-937 limits assumed) above
Sequence of KIT(JMplus) (P10721 546-976 limits assumed): as the sequence (P10721 546-976 V559D limits assumed) above, with D14V counted along it

`Cc1ccc2[nH]c(C(=O)Nc3ccc(NC(=O)Nc4cc(C(C)(C)C)on4)cc3)cc2c1` [Compound N127]: the results for the Kd in experiment [1] and in experiment [2] were 1 to 10 µM and under 0.1 µM, respectively.
For the molecule `Cc1[nH]c(C(=O)Nc2ccc(NC(=O)Nc3cc(C(C)(C)C)on3)cc2)c(C)c1CCC(=O)O` [Compound N39], the Kd is 0.1 to 1 µM in experiment [1] and under 0.1 µM in experiment [3].
Turning to `CC(C)(C)c1cc(NC(=O)Nc2ccc(NC(=O)c3cc4ccccc4[nH]3)cc2)no1` [Compound N161], the figures for the Kd in experiment [1] and in experiment [2] were 1 to 10 µM and under 0.1 µM, respectively.
In the case of `C=N/C(=N\C)Oc1cccc(C(=O)Nc2ccc(NC(=O)Nc3cc(C(C)(C)C)on3)cc2)c1` [Compound N74], the Kd in experiment [1] was 0.1 to 1 µM; in experiment [4] it was 0.1 to 1 µM; in experiment [2], under 0.1 µM.
Turning to `CC(C)(C)c1cc(NC(=O)Nc2ccc(NC(=O)c3ncccc3O)cc2)no1` [Compound N134], the Kd in experiment [1] was 0.1 to 1 µM; in experiment [3] it was under 0.1 µM; in experiment [5], under 0.1 µM; in experiment [2] it was under 0.1 µM.
For the molecule `CC(C)(C)c1cc(NC(=O)Nc2ccc(OCC3CC3)cc2)no1` [Compound G37], the Kd is 1 to 10 µM in experiment [1], 0.1 to 1 µM in experiment [4], under 0.1 µM in experiment [3] and under 0.1 µM in experiment [2].
Consider `CC(C)(C)c1cc(NC(=O)Nc2ccc(Nc3ncnc4[nH]cnc34)cc2)no1` [Compound O3], for which the Kd in experiment [1] and in experiment [3] was under 0.1 µM each time.
`CC(C)(C)c1cc(NC(=O)Nc2ccc(C(=O)Nc3nccnc3N)cc2)no1` [Compound N157]: the figures for the Kd in experiment [1], in experiment [4] and in experiment [2] were 1 to 10 µM, 0.1 to 1 µM and under 0.1 µM, respectively.
In the case of `COc1cc2nc(Cl)nc(Nc3ccc(NC(=O)Nc4cc(C(C)(C)C)on4)cc3)c2cc1OC` [Compound O1, 1-(4-(2-chloro-6,7-dimethoxyquinazolin-4-ylamino)phenyl)-3-(5-tert-butylisoxazol-3-yl)urea], the Kd in experiment [1] was 1 to 10 µM; in experiment [3] it was 0.1 to 1 µM; in experiment [6], under 0.1 µM; in experiment [2], under 0.1 µM.
Regarding `CC(C)(C)c1cnc(CSc2cnc(NC(=O)Nc3ccon3)s2)o1`, in experiment [7], the IC50 was under 0.1 µM.
Consider `COc1cc2ncnc(Nc3ccc(NC(=O)Nc4cc(C(C)(C)C)on4)cc3)c2cc1OC` [Compound O5], for which the Kd in experiment [1], in experiment [6] and in experiment [2] was under 0.1 µM each time.
Consider `CC(C)(C)c1cc(NC(=O)Nc2ccc(NC(=O)c3ccccn3)cc2)no1` [Compound N188], for which the Kd was 0.1 to 1 µM in experiment [1], under 0.1 µM in experiment [3], under 0.1 µM in experiment [5] and under 0.1 µM in experiment [2].
In experiment [7], `CC(C)(C)c1cc(NC(=O)Nc2ccc(C(=O)/C=C/c3ccncc3)cc2)no1` yielded an IC50 of 0.1 to 1 µM.
On to `CC(C)(C)c1cc(NC(=O)Nc2ccc(OCc3ccccc3F)cc2)no1` [Compound G12, 1-(4-(2-fluorobenzyloxy)phenyl)-3-(5-tert-butylisoxazol-3-yl)urea], for which the figures for the Kd in experiment [1], in experiment [3] and in experiment [2] were 1 to 10 µM, 0.1 to 1 µM and under 0.1 µM, respectively.
Regarding `CC(=O)Oc1cccnc1C(=O)Nc1ccc(NC(=O)Nc2cc(C(C)(C)C)on2)cc1` [Compound N79], the Kd in experiment [1] was 0.1 to 1 µM; in experiment [2], under 0.1 µM.
Turning to `CC(C)(C)c1cc(NC(=O)Nc2ccc(N3C(=O)c4ccccc4C3=O)cc2)no1` [Compound A57], the Kd in experiment [1] is 1 to 10 µM; in experiment [2], under 0.1 µM.

Usually Kd stands for the constant that tells how readily two partners part at equilibrium. Higher therefore signals a looser complex. The IC50 is the concentration that gives 50% inhibition. High values mean a need for much substance, low ones inhibition by little substance.
